Measured values: patent publication US20230219912A1, “HALOGENATED BENZOTHIADIAZINES FOR THE TREATMENT OF CANCER” (BOARD OF REGENTS OF THE UNIVERSITY OF NEBRASKA, priority 2020, published 2023)
Values joined by “and” are separate entries in the source; they are usually repeats but may differ in a detail not shown here. Identical values can stand only once.

How the values were obtained:
[1] = biological target: T1, Mitochondrial respiratory complex II (Rattus norvegicus, UniProt P21913+Q641Z9+Q6PCT8+Q920L2); test: Mitochondrial respiratory complex II inhibition assay; type: biochemical
T1 construct: measured spectrophotometrically using isolated rat heart mitochondria; from tissue; host or cells: rat heart mitochondria / sub-mitochondrial particles
Method in brief: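 Rat heart mitochondria or sub-mitochondrial particles in phosphate buffer pH 7.4 with 40 μM DCPIP, 1 mM KCN, 10 μM rotenone and 50 μM co-enzyme Q2.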

[2] = tested on: VEGF-induced proliferation of HUVEC cells; test: VEGF-induced HUVEC proliferation, MTT assay; type: cell-based, human; settings: Homo sapiens, HUVEC, 48 h, 20 μM compound, VEGF 10 ng/mL, HUVEC, 48 h; relative to VEGF treated cells; mean ± SEM n = 3; read-out: % Inhibition of Proliferation
Method in brief: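 HUVECs starved 24 h in 0.1% BSA/0.1% FBS basal medium, then treated 48 h with VEGF (10 ng/mL) alone or with compounds at 20 μM (DMSO <1%). Proliferation by MTT (2 h, 37° C), formazan dissolved in acidified isopropanol, absorbance at 570 nm.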

[3] = tested on: phosphorylated vascular endothelial growth factor receptor-2 (VEGFR2); test: Western blot of pVEGFR2 in VEGF-treated HUVEC cells; type: cell-based, human; settings: 20 μM, VEGF 10 ng/mL, 5 min
Protocol: Cells were treated with test compounds (20 μM) along with VEGF (10 ng/mL) for 5 min. The DMSO was used as a negative control, whereas DMSO+VEGF was used as a positive control. Cells were lysed using RIPA buffer (10 mmol/L Tris-HCl, 1 mmol/L EDTA, 0.5 mmol/L EGTA, 1% Triton X-100, 0.1% sodium deoxycholate, 0.1% SDS and 140 mmol/L NaCl), supplemented with protease and phosphatase inhibitors (Halt Protease and Phosphatase Inhibitor). Cell lysates were centrifuged, and the supernatants were mixed with appropriate amount of 5×SDS loading buffer. Proteins were resolved on polyacrylamide gel and transferred onto nitrocellulose/PVDF membrane, blocked for 1 hour with 10% milk block prepared in 0.1% Tween 20 in 1×PBS (PBST), and treated with pVEGFR2 primary antibody at 4° C. overnight. The membrane was washed thrice with PBST, 5 minutes each, and treated with secondary antibody for 1 hour. The membrane was further washed three times, 5 minutes each, with PBST and developed using chemiluminescence, and the bands were analyzed using densitometry.

[4] = biological target: T2, Mitochondrial respiratory complex II (CII) (Rattus norvegicus, UniProt P21913+Q641Z9+Q6PCT8+Q920L2); settings: rat heart mitochondria, literature; cited from earlier work
T2 construct: host or cells: rat heart mitochondria

[5] = biological target: T3, TTK (Homo sapiens, UniProt P33981); settings: 100 μM; cited from earlier work
T3 sequence (P33981 1-857): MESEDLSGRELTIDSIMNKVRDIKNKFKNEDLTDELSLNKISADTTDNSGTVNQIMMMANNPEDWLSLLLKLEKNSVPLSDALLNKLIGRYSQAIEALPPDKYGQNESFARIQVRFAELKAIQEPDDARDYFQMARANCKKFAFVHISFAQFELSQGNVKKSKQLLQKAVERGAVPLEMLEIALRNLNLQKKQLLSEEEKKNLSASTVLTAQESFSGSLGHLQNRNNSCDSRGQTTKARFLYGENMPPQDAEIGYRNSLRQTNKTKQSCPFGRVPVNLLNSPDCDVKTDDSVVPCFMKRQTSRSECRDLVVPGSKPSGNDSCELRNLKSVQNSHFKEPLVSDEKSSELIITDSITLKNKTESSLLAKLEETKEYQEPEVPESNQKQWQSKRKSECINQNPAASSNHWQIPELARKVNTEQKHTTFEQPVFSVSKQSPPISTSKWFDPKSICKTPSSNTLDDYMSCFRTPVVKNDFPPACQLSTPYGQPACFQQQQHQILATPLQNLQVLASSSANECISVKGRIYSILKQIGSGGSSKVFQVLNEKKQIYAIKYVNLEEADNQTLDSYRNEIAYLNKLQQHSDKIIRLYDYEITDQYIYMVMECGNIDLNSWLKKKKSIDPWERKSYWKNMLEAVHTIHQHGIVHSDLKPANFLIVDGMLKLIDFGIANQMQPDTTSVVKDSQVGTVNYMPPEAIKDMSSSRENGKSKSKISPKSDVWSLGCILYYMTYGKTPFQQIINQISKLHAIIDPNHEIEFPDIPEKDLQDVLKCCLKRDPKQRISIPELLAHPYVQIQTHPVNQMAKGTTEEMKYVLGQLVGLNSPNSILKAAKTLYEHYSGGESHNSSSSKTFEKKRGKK

[6] = tested on: MCF-7 breast cancer cells; settings: cited from earlier work
[7] = tested on: hormone-dependent mammary carcinomas; settings: 300 mg/kg, rats; cited from earlier work
[8] = tested on: breast cancer; settings: 200-300 mg per day, cited from earlier work

T1 sequence (Q920L2 35-656): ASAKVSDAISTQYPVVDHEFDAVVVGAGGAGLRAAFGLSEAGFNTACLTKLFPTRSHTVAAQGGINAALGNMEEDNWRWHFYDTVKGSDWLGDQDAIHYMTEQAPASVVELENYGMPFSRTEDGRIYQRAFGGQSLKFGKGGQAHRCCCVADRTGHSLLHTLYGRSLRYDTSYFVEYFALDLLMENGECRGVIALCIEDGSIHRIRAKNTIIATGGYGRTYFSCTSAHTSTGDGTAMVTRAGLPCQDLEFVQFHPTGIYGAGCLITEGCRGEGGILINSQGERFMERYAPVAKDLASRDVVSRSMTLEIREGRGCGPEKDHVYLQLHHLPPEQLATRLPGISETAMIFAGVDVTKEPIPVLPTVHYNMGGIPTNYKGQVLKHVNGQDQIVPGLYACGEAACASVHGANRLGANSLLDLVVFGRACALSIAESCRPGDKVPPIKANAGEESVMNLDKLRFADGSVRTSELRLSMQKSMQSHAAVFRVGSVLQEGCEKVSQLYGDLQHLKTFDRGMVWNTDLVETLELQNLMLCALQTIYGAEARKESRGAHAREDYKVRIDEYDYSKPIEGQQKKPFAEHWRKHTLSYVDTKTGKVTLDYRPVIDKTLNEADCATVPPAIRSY
T1 sequence (P21913 31-282): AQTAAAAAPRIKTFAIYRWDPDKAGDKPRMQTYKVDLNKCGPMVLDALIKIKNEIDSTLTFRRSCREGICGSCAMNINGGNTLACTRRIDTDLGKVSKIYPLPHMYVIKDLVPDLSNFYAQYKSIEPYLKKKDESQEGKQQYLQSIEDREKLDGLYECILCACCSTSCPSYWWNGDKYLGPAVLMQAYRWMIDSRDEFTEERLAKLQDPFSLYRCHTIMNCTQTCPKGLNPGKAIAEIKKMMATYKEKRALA
T1 sequence (Q641Z9 1-169): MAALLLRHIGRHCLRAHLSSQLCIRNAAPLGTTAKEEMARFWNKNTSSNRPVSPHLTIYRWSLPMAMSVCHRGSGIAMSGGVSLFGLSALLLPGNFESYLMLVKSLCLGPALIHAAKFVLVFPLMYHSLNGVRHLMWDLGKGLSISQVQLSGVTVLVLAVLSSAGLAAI
T1 sequence (Q6PCT8 57-159): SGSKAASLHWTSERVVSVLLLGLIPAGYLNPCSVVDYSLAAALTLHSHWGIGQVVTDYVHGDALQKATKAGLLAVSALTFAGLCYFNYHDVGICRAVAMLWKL
T2 sequence (Q920L2 35-656): as the sequence (Q920L2 35-656) above
T2 sequence (P21913 31-282): as the sequence (P21913 31-282) above
T2 sequence (Q641Z9 30-169 limits assumed): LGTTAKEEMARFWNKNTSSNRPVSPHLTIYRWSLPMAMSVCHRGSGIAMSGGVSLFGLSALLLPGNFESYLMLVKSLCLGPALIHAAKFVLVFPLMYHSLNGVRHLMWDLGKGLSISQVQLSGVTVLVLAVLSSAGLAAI
T2 sequence (Q6PCT8 57-159): as the sequence (Q6PCT8 57-159) above

CC1=Nc2ccc(Cl)cc2S(=O)(=O)N1 [Diazoxide, 7-chloro-3-methyl-2H-1,2,4-benzothiadiazine 1,1-dioxide, reference compound]
inhibition of CII ([1]; 100 μM, relative to DMSO control): no CII inhibition activity | inhibition at 100 µM ([1]; 100 μM, relative to DMSO control, read-out: inhibition of CII): 9% | IC50 ([1]; isolated rat heart mitochondria, mean ±SD of n = 4, read-out: CII IC50): 1240 µM and > 1000 µM | inhibition at 20 µM [2]: 15 ± 20% | attenuation of pVEGFR2 expression [3]: good activity to suppress pVEGFR2 | IC50 [4]: 32 µM | inhibition of TTK [5]: 15% | IC50 [6]: 130 µM | adverse effect [7]: mild reversible diabetes | inhibition of tumor growth [7]: 90% | response rate ([8]; nine patients): 33% | duration of stable disease [8]: 4-8 months
